# Experimental data from ChEMBL document CHEMBL4033685, “C21-steroidal pregnane sapogenins and their derivatives as anti-inflammatory agents” (Bioorg Med Chem, 2017).
# Activity calls are given as the source filed them. The rule behind the calls is not given here.
# Legend:
# Toll-like receptor 4 [1] = target: T1, Toll-like receptor 4 (Homo sapiens, UniProt O00206); experiment: Antagonist activity at TLR4 in human THP1 cells assessed as inhibition of LPS-stimulated IL-6 mRNA level after 16 hrs by RT-PCR method; format: cell-based
# Toll-like receptor 4 [2] = target: T1, Toll-like receptor 4; experiment: Antagonist activity at TLR4 in human THP1 cells assessed as inhibition of LPS-stimulated RANTES mRNA level after 16 hrs by RT-PCR method; format: cell-based
# [3] = target: Toll-like receptor 2 (Homo sapiens) (UniProt O60603); experiment: Antagonist activity at TLR2 in human THP1 cells assessed as inhibition of PGN-stimulated RANTES mRNA level after 16 hrs by RT-PCR method; format: cell-based
# [4] = target: Toll-like receptor 3 (Homo sapiens) (UniProt O15455); experiment: Antagonist activity at TLR3 in human THP1 cells assessed as inhibition of poly IC-stimulated RANTES mRNA level after 16 hrs by RT-PCR method; format: cell-based
# Toll-like receptor 4 [5] = target: T1, Toll-like receptor 4; experiment: Antagonist activity at TLR4 in human THP1 cells harboring human TRAF6 assessed as inhibition of LPS-stimulated IL-6 level at 10 uM by bead based immunoassay; format: cell-based
# [6] = target: Toll-like receptor 3 (Homo sapiens) (UniProt O15455); experiment: Antagonist activity at TLR3 in human THP1 cells assessed as inhibition of poly IC-stimulated IL-6 mRNA level after 16 hrs by RT-PCR method; format: cell-based
# [7] = target: Toll-like receptor 2 (Homo sapiens) (UniProt O60603); experiment: Antagonist activity at TLR2 in human THP1 cells assessed as inhibition of PGN-stimulated IL-6 mRNA level after 16 hrs by RT-PCR method; format: cell-based
# Toll-like receptor 4 [8] = target: T1, Toll-like receptor 4; experiment: Antagonist activity at TLR4 in human THP1 cells harboring human TRAF6 assessed as inhibition of LPS-stimulated IL-1beta level at 10 uM by bead based immunoassay; format: cell-based
# AD293 = experiment: Effect on IkBalpha protein expression in TNFalpha-stimulated human AD293 cells at 10 uM after 3 hrs by Western blot analysis; format: functional, cell-based
# [9] = target: Transcription factor p65 (Homo sapiens) (UniProt Q04206); experiment: Inhibition of TNFalpha-stimulated NF-kB p65 phosphorylation (unknown origin) expressed in human AD293 cells at 10 uM after 3 hrs by Western blot analysis; format: cell-based
# Toll-like receptor 4 [10] = target: T1, Toll-like receptor 4; experiment: Antagonist activity at TLR4 in human THP1 cells assessed as inhibition of LPS-stimulated IL-1beta level at 10 uM by bead based immunoassay; format: cell-based
# [11] = target: Toll-like receptor 3 (Homo sapiens) (UniProt O15455); experiment: Antagonist activity at TLR3 in human THP1 cells assessed as inhibition of poly IC-stimulated IL-6 mRNA level at 10 uM after 16 hrs by RT-PCR method; format: cell-based
# THP-1 [12] = experiment: Downregulation of IkBalpha protein expression in LPS-stimulated human THP1 cells at 10 uM after 3 hrs by Western blot analysis; format: functional, cell-based
# Toll-like receptor 4 [13] = target: T1, Toll-like receptor 4; experiment: Antagonist activity at TLR4 in human THP1 cells assessed as inhibition of LPS-stimulated NFkappaB p65 protein expression at 10 uM after 3 hrs by Western blot analysis; format: cell-based
# Toll-like receptor 4 [14] = target: T1, Toll-like receptor 4; experiment: Antagonist activity at TLR4 in human THP1 cells assessed as inhibition of LPS-stimulated NF-kB canonical signaling pathway by measuring decrease in IkBalpha phosphorylation at 10 uM after 3 hrs by Western blot analysis; format: cell-based
# Toll-like receptor 4 [15] = target: T1, Toll-like receptor 4; experiment: Antagonist activity at TLR4 in human THP1 cells assessed as inhibition of LPS-stimulated IL-6 mRNA level at 10 uM after 16 hrs by RT-PCR method; format: cell-based
# Toll-like receptor 4 [16] = target: T1, Toll-like receptor 4; experiment: Antagonist activity at TLR4 in human THP1 cells assessed as inhibition of LPS-stimulated RANTES mRNA level at 10 uM after 16 hrs by RT-PCR method; format: cell-based
# THP-1 [17] = experiment: Downregulation of IkBalpha protein expression in human THP1 cells at 10 uM after 3 hrs by Western blot analysis; format: functional, cell-based
# [18] = target: Transcription factor p65 (Homo sapiens) (UniProt Q04206); experiment: Upregulation of NF-kB p65 phosphorylation (unknown origin) expressed in human AD293 cells at 10 uM after 3 hrs by Western blot analysis; format: cell-based
# [19] = target: Toll-like receptor 2 (Homo sapiens) (UniProt O60603); experiment: Antagonist activity at TLR2 in human THP1 cells assessed as inhibition of PGN-stimulated IL-6 mRNA level at 10 uM after 16 hrs by RT-PCR method; format: cell-based
# [20] = target: Toll-like receptor 3 (Homo sapiens) (UniProt O15455); experiment: Antagonist activity at TLR3 in human THP1 cells assessed as inhibition of poly IC-stimulated RANTES mRNA level at 10 uM after 16 hrs by RT-PCR method; format: cell-based
# [21] = target: Toll-like receptor 2 (Homo sapiens) (UniProt O60603); experiment: Antagonist activity at TLR2 in human THP1 cells assessed as inhibition of PGN-stimulated RANTES mRNA level at 10 uM after 16 hrs by RT-PCR method; format: cell-based
# T1 sequence (O00206 whole entry): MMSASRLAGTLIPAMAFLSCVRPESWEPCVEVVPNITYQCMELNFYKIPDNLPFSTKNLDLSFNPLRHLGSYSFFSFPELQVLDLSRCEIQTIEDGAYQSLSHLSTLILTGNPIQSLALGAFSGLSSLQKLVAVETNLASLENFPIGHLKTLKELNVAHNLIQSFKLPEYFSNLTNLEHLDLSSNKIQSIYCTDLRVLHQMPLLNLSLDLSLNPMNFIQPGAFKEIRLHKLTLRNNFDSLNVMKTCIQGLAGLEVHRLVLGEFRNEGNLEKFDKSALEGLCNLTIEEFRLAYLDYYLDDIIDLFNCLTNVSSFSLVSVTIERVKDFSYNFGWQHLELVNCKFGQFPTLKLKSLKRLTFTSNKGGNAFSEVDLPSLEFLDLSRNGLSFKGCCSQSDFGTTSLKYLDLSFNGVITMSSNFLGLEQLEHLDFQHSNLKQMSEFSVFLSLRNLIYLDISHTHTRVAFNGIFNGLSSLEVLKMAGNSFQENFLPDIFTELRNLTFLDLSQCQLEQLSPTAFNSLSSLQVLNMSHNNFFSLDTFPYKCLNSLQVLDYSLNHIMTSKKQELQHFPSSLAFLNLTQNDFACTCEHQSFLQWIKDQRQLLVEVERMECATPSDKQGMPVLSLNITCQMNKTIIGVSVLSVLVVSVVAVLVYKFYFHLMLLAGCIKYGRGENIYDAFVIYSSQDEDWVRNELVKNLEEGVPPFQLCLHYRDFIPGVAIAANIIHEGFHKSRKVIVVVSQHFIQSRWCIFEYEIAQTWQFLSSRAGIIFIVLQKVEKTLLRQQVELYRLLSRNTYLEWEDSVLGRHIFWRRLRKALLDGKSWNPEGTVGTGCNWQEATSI
# Toll-like receptor 2 (Homo sapiens), sequence (O60603 whole entry): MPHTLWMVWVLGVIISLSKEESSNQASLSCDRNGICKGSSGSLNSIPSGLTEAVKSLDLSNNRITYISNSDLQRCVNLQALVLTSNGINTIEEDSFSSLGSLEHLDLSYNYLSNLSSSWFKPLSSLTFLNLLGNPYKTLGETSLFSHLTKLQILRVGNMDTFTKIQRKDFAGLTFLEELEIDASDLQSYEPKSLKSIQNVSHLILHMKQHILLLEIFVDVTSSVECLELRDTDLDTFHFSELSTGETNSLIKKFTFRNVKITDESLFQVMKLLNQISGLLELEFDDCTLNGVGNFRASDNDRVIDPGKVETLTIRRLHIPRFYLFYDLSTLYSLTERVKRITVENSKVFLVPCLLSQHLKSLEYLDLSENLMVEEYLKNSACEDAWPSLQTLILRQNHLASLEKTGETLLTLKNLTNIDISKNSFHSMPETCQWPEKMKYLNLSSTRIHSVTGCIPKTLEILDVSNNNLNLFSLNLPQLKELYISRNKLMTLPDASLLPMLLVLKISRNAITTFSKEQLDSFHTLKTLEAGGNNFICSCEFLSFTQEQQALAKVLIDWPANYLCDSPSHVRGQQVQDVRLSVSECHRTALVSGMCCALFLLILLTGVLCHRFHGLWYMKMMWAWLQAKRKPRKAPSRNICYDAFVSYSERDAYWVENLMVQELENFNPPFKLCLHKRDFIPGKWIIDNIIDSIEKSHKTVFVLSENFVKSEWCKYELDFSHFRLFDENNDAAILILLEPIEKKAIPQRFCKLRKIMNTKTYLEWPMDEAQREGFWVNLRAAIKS
# Toll-like receptor 3 (Homo sapiens), sequence (O15455 whole entry): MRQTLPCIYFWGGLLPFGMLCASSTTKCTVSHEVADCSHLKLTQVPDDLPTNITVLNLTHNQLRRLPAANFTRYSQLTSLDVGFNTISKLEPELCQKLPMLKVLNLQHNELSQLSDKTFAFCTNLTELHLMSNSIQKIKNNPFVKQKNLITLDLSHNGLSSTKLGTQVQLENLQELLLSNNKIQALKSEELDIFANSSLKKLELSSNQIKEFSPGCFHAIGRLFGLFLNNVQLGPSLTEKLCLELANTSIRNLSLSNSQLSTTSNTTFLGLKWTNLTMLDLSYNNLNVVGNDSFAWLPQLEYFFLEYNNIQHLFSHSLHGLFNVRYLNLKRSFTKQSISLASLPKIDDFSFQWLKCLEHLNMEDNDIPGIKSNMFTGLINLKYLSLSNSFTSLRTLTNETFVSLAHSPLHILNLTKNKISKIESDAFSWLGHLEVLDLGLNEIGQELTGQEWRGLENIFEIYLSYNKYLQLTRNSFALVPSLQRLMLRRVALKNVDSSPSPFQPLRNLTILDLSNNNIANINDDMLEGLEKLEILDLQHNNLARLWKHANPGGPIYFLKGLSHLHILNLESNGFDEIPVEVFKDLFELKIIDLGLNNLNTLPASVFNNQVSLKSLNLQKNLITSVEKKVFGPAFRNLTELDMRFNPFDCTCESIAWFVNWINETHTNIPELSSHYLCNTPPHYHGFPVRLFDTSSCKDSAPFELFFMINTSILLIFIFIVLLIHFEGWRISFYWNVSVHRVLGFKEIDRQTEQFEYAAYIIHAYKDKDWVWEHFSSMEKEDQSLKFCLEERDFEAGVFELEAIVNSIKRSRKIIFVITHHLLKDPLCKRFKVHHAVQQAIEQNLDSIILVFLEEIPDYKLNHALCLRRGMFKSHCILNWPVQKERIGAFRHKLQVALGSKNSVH
# Transcription factor p65 (Homo sapiens), sequence (Q04206 whole entry): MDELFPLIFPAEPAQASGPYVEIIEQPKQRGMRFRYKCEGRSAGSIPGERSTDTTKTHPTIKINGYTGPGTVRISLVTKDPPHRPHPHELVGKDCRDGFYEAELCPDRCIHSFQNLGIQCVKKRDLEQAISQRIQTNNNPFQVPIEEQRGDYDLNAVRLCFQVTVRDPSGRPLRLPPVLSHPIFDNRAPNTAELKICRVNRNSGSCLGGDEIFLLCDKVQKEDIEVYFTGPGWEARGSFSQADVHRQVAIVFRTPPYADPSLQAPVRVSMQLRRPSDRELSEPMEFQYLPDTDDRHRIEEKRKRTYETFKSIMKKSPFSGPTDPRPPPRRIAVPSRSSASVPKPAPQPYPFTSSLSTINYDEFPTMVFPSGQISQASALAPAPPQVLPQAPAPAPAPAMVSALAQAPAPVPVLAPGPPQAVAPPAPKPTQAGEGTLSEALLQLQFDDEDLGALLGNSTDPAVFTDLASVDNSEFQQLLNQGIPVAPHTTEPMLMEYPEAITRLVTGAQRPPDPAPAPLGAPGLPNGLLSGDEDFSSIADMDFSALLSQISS
compound,measurement,setting,value
COc1ccc(/C=C/C(=O)O[C@H]2CC[C@@]3(C)C(=CC[C@]4(O)[C@@H]3C[C@@H](OC(=O)/C=C(\C)C(C)C)[C@@]3(C)[C@]4(O)CC[C@@]3(O)C(C)=O)C2)cc1,inhibition,Toll-like receptor 4 [1],Dose-dependent effect
same,inhibition,Toll-like receptor 4 [2],Dose-dependent effect
same,inhibition,[3],Dose-dependent effect
same,inhibition,[4],Dose-dependent effect
same,inhibition,Toll-like receptor 4 [5],inactive
same,inhibition,[6],Dose-dependent effect
same,inhibition,[7],Dose-dependent effect
same,inhibition,Toll-like receptor 4 [8],inactive
same,Activity,AD293,inactive
same,inhibition,[9],inactive
same,inhibition,Toll-like receptor 4 [10],Active
CC(=O)[C@]1(O)CC[C@@]2(O)[C@]1(C)[C@H](OC(=O)c1ccc(O)cc1)C[C@@H]1[C@@]3(C)CC[C@H](OC(=O)CCl)CC3=CC[C@]12O,inhibition,[11],Active
same,Activity,THP-1 [12],Active
same,inhibition,Toll-like receptor 4 [13],Active
same,inhibition,Toll-like receptor 4 [5],inactive
same,inhibition,Toll-like receptor 4 [8],inactive
same,Activity,AD293,inactive
same,inhibition,Toll-like receptor 4 [14],inactive
same,inhibition,Toll-like receptor 4 [15],Active
same,inhibition,[9],inactive
same,inhibition,Toll-like receptor 4 [16],Active
same,Activity,THP-1 [17],Active
same,Activity,[18],Active
same,inhibition,Toll-like receptor 4 [10],Active
same,inhibition,[19],Active
same,inhibition,[20],Active
same,inhibition,[21],Active
